Structures can show the parent of a compound that is named as a salt.

The target of the test is T1, human V1a receptor (Homo sapiens, UniProt P37288).
T1 construct: expressed in transfected cells; host or cells: HEK293 cells, transiently transfected; cell membranes
T1 sequence (P37288 whole entry): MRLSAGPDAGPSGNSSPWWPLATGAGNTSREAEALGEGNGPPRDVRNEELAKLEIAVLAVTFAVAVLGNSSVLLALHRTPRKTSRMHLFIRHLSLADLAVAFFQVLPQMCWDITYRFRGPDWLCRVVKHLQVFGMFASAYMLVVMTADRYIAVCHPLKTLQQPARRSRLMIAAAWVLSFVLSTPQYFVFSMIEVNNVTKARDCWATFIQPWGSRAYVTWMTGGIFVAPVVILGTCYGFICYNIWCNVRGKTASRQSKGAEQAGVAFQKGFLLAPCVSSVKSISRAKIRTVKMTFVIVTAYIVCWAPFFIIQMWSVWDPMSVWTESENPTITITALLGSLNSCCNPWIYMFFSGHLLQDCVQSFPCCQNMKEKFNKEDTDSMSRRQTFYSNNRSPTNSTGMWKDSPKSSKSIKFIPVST
The test is described as follows: human V1a receptor binding (3H-Vasopressin SPA, HEK293 membranes). The note with it: displacement of 4 nM 3H-Vasopressin, membranes of HEK293 cells transiently transfected with human V1a receptor; Ki from IC50 by Cheng-Prussoff. The protocol: The human V1a receptor was cloned by RT-PCR from total human liver RNA. The coding sequence was subcloned in an expression vector after sequencing to confirm the identity of the amplified sequence. […] Cell membranes were prepared from HEK293 cells transiently transfected with the expression vector and grown in 20 liter fermenters with the following protocol.
50 g cells are resuspended in 30 ml freshly prepared ice cold Lysis buffer (50 mM HEPES, 1 mM EDTA, 10 mM MgCl2 adjusted to pH=7.4+complete cocktail of protease inhibitor (Roche Diagnostics)). The cells are homogenized with Polytron for 1 min and sonicated on ice for 2×2 minutes at 80% intensity (Vibracell sonicator). The preparation is centrifuged 20 min at 500 g at 4° C., the pellet is discarded and the supernatant centrifuged 1 hour at 43,000 g at 4° C. (19,000 rpm). The pellet is resuspended in 12.5 ml Lysis buffer+12.5 ml Sucrose 20% and homogenized using a Polytron for 1-2 min. The protein concentration is determined by the Bradford method and aliquots are stored at −80° C. until use. For binding studies 60 mg Yttrium silicate SPA beads (Amersham) are mixed with an aliquot of membrane in binding buffer (50 mM Tris, 120 mM NaCl, 5 mM KCl, 2 mM CaCl2, 10 mM MgCl2) for 15 minutes with mixing. 50 ul of bead/membrane mixture is then added to each well of a 96 well plate, followed by 50 ul of 4 nM 3H-Vasopressin (American Radiolabeled Chemicals). For total binding measurement 100 ul of binding buffer are added to the respective wells, for non-specific binding 100 ul of […] cold vasopressin and for compound testing 100 ul of a serial dilution of each compound in 2% DMSO. The plate is incubated 1 h at room temperature, centrifuged 1 min at 1000 g and counted on a Packard Top-Count. Non-specific binding counts are subtracted from each well and data is normalized to the maximum specific binding set at 100%. To calculate an IC 50 the curve is fitted using a non-linear regression model (XLfit), and the Ki is calculated using the Cheng-Prussoff equation.
Take `O=C(c1c[nH]c2cc(Cl)ccc12)N1CCC2(CCc3ccccc32)CC1` [Example 6, 1′-[(6-chloro-1H-indol-3-yl)carbonyl]-2,3-dihydrospiro[indene-1,4′-piperidine]]: the inhibition constant Ki came out at 19.7 nM. The same measure for `O=C(Cn1cc(C(=O)N2CCC3(CC2)COc2ccccc23)c2ccc(Cl)cc21)N1CCCCC1` [Example 87, 1′-{[6-chloro-1-(2-oxo-2-piperidin-1-ylethyl)-1H-indol-3-yl]carbonyl}spiro[1-benzofuran-3,4′-piperidine]]: 3.5 nM; for `O=C(c1cn(C(=O)c2ccccc2F)c2cc(Cl)ccc12)N1CCC2(CC1)OCc1ccccc12` [Example 215]: 8.6 nM.

For `O=C(c1cn(CCN2CCCC2)c2cc(Cl)ccc12)N1CCC2(CC1)COc1ccccc12` [Example 82, 1′-{[6-chloro-1-(2-pyrrolidin-1-ylethyl)-1H-indol-3-yl]carbonyl}spiro[1-benzofuran-3,4′-piperidine]], the Ki amounted to 12.9 nM. With `O=C1OC2(CCN(C(=O)c3cn(CC(=O)N4CCNCC4)c4cc(Cl)ccc34)CC2)c2ccc(F)cc21` [Example 117, 1′-{[6-Chloro-1-(2-oxo-2-piperazin-1-ylethyl)-1H-indol-3-yl]carbonyl}-5-fluoro-3H-spiro[2-benzofuran-1,4′-piperidin]-3-one] the figure was 1.2 nM. In turn, `O=C1OC2(CCN(C(=O)c3c[nH]c4cc(Cl)ccc34)CC2)c2ccc(F)cc21` [Example 19, 1′-[(6-chloro-1H-indol-3-yl)carbonyl]-5-fluoro-3H-spiro[2-benzofuran-1,4′-piperidin]-3-one] registered a Ki of 6.8 nM. As to `CN(C)C(=O)Cn1cc(C(=O)N2CCC3(CC2)OC(=O)c2ccccc23)c2ccc(Cl)cc21` [Example 106, 2-{6-Chloro-3-[(3-oxo-1′H,3H-spiro[2-benzofuran-1,4′-piperidin]-1′-yl)carbonyl]-1H-indol-1-yl}-N,N-dimethylacetamide], the affinity corresponds to a Ki of 0.4 nM.

With `Cc1cc(Cn2cc(C(=O)N3CCC4(CC3)OC(=O)c3cc(F)ccc34)c3ccc(Cl)cc32)nn1C` [Example 185, 1′-({6-Chloro-1-[(1,5-dimethyl-1H-pyrazol-3-yl)methyl]-1H-indol-3-yl}carbonyl)-5-fluoro-3H-spiro[2-benzofuran-1,4′-piperidin]-3-one], the affinity corresponds to a Ki of 2.2 nM. With `O=C(c1cn(C[C@H]2CCCNC2)c2cc(Cl)ccc12)N1CCC2(CC1)OCc1ccccc12` [Example 261, 1′-({6-Chloro-1-[(3S)-piperidin-3-ylmethyl]-1H-indol-3-yl}carbonyl)-3H-spiro[2-benzofuran-1,4′-piperidine]] the figure was 1.7 nM. The same measure for `CNC(=O)Cn1cc(C(=O)N2CCC3(CC2)NC(=O)c2ccccc23)c2ccc(Cl)cc21` [Example 283, 2-{6-Chloro-3-[(3-oxo-2,3-dihydro-1′H-spiro[isoindole-1,4′-piperidin]-1′-yl)carbonyl]-1H-indol-1-yl}-N-methylacetamide]: 63.1 nM; for `Cc1cc(Cn2cc(C(=O)N3CCC4(CC3)OC(=O)c3cc(F)ccc34)c3ccc(Cl)cc32)c(Cl)nn1` [Example 165, 1′-({6-Chloro-1-[(3-chloro-6-methylpyridazin-4-yl)methyl]-1H-indol-3-yl}carbonyl)-5-fluoro-3H-spiro[2-benzofuran-1,4′-piperidin]-3-one]: 4.3 nM.

Regarding `O=C(c1cn(Cc2cccc(F)c2)c2cc(Cl)ccc12)N1CCC2(CC1)OCc1ccccc12` [Example 220], the affinity, expressed as Ki, was 1 nM. Turning to `Cc1cc(Cn2cc(C(=O)N3CCC4(CC3)OCc3ccccc34)c3ccc(Cl)cc32)no1` [Example 236, 1′-({6-Chloro-1-[(5-methylisoxazol-3-yl)methyl]-1H-indol-3-yl}carbonyl)-3H-spiro[2-benzofuran-1,4′-piperidine]], the Ki came out at 1.7 nM. The same measure for `O=C(c1cn(Cc2cc(F)cc(F)c2)c2cc(Cl)ccc12)N1CCC2(CC1)CNc1ccccc12` [Example 93]: 13.8 nM; for `CC(C)(C)OC(=O)N1CCn2c(c(C(=O)N3CCC4(CC3)OCc3ccccc34)c3ccccc32)C1` [Example 274, tert-Butyl 10-(1′H,3H-spiro[2-benzofuran-1,4′-piperidin]-1′-ylcarbonyl)-3,4-dihydropyrazino[1,2-a]indole-2(1H)-carboxylate]: 25.1 nM; for `CCC(C)C(=O)c1[nH]c2ccccc2c1C(=O)N1CCC2(CC1)OCc1ccccc12` (centres unmarked) [Example 72, 2-methyl-1-[3-(1′H,3H-spiro[2-benzofuran-1,4′-piperidin]-1′-ylcarbonyl)-1H-indol-2-yl]butan-1-one]: 2.9 nM. In the case of `Cc1oc(-c2ccccc2)nc1C(=O)Cn1cc(C(=O)N2CCC3(CC2)OC(=O)c2cc(F)ccc23)c2ccc(Cl)cc21` [Example 170, 1′-({6-Chloro-1-[2-(5-methyl-2-phenyl-1,3-oxazol-4-yl)-2-oxoethyl]-1H-indol-3-yl}carbonyl)-5-fluoro-3H-spiro[2-benzofuran-1,4′-piperidin]-3-one], the Ki worked out at 2.2 nM. As for `N#CCn1cc(C(=O)N2CCC3(CC2)OC(=O)c2ccccc23)c2ccc(Cl)cc21` [Example 37, {6-chloro-3-[(3-oxo-1′H,3H-spiro[2-benzofuran-1,4′-piperidin]-1′-yl)carbonyl]-1H-indol-1-yl}acetonitrile], the Ki was 6.3 nM. The same measure for `NC(=O)Cn1cc(C(=O)N2CCC3(CC2)OC(=O)c2cc(F)ccc23)c2ccc(Cl)cc21` [Example 115, 2-{6-Chloro-3-[(5-fluoro-3-oxo-1′H,3H-spiro[2-benzofuran-1,4′-piperidin]-1′-yl)carbonyl]-1H-indol-1-yl}acetamide]: 10.4 nM; for `COc1ccc2c(c1)C1(CCN(C(=O)c3c(C)n(Cc4ccccc4)c4ccccc34)CC1)OC2=O` [Example 12, 1′-[(1-benzyl-2-methyl-1H-indol-3-yl)carbonyl]-6-methoxy-3H-spiro[2-benzofuran-1,4′-piperidin]-3-one]: 3.4 nM.

In the case of `O=C(Cn1cc(C(=O)N2CCC3(CC2)OCc2ccccc23)c2ccc(Cl)cc21)N1CCCCC1` [Example 204, 1′-{[6-Chloro-1-(2-oxo-2-piperidin-1-ylethyl)-1H-indol-3-yl]carbonyl}-3H-spiro[2-benzofuran-1,4′-piperidine]], the Ki is 1.1 nM. Regarding `CNCCNC(=O)c1[nH]c2cc(Cl)ccc2c1C(=O)N1CCC2(CC1)OC(=O)c1cc(F)ccc12` [Example 194, 6-Chloro-3-[(5-fluoro-3-oxo-1′H,3H-spiro[2-benzofuran-1,4′-piperidin]-1′-yl)carbonyl]-N-[2-(methylamino)ethyl]-1H-indole-2-carboxamide hydrochloride], the Ki is 15.1 nM.

Compound `Cc1cc(Cn2cc(C(=O)N3CCC4(CC3)OC(=O)c3cc(F)ccc34)c3ccc(Cl)cc32)no1` [Example 179, 1′-({6-Chloro-1-[(5-methylisoxazol-3-yl)methyl]-1H-indol-3-yl}carbonyl)-5-fluoro-3H-spiro[2-benzofuran-1,4′-piperidin]-3-one] displayed a Ki of 3.1 nM. Compound `N#CCC1(Cn2cc(C(=O)N3CCC4(CC3)OC(=O)c3ccccc34)c3ccc(Cl)cc32)CC1` [Example 193, [1-({6-Chloro-3-[(3-oxo-1′H,3H-spiro[2-benzofuran-1,4′-piperidin]-1′-yl)carbonyl]-1H-indol-1-yl}methyl)cyclopropyl]acetonitrile] had a Ki of 2.1 nM. The same measure for `Cc1c(C(=O)N2CCC3(CC2)OCc2ccc(Cl)cc23)c2ccccc2n1Cc1ccccc1` [Example 40, 1′-[(1-benzyl-2-methyl-1H-indol-3-yl)carbonyl]-6-chloro-3H-spiro[2-benzofuran-1,4′-piperidine]]: 2.9 nM; for `O=C(c1cn(CC2CCNC2)c2cc(Cl)ccc12)N1CCC2(CC1)OCc1ccccc12` (centres unmarked) [Example 266, 1′-{[6-Chloro-1-(pyrrolidin-3-ylmethyl)-1H-indol-3-yl]carbonyl}-3H-spiro[2-benzofuran-1,4′-piperidine]]: 2.7 nM; for `Cc1c(C(=O)N2CCC3(C=Cc4ccccc43)CC2)c2ccccc2n1Cc1ccccc1` [Example 1, 1′-[(1-benzyl-2-methyl-1H-indol-3-yl)carbonyl]spiro[indene-1,4′-piperidine]]: 6.8 nM.

In the case of `O=C(c1c[nH]c2cc(Cl)ccc12)N1CCC2(CC1)NCc1ccccc12` [Example 284, 1′-[(6-Chloro-1H-indol-3-yl)carbonyl]-2,3-dihydrospiro[isoindole-1,4′-piperidine]], the Ki amounted to 138 nM. With `O=C(c1cn(Cc2cncnc2)c2cc(Cl)ccc12)N1CCC2(CC1)OCc1ccccc12` [Example 235] the figure was 1.4 nM.

The Ki is the dissociation constant of the complex between target and ligand, obtained from inhibition or displacement.

These data come from patent publication US7332501B2, “Indol-3-yl-carbonyl-spiro-piperidine derivatives as V1a receptor antagonists” (Hoffmann-La Roche Inc., priority 2005, dated 2008).
